Like-named read-outs stand apart in the source and are kept apart here.
System: HBV rcDNA
Assay: HepDE19 assay with bDNA quantitation of HBV rcDNA
Format: cell-based, hepatitis B virus
Summary of the method: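 Compounds, top concentration 25 μM in 8-point duplicate series, were applied to Tet-free HepDE19 cultures for 7 days. Branched-DNA quantitation of HBV rcDNA against untreated wells gave EC50 and EC90 by 4-parameter fit. Viability (CC50) came from ATP luminescence on parallel plates incubated 4 days.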

[1] = HepDE19 assay, inhibition of formation of relaxed circular DNA (rcDNA), bDNA quantitation, read-out: DE-19bDNA EC50
[2] = Hepatitis B virus, HepDE19, HepDE19 assay, inhibition of formation of rcDNA, read-out: DE-19bDNA EC50
[3] = read-out: DE-19bDNA EC50, HepDE19 assay, inhibition of formation of rcDNA
[4] = HepDE19 assay, inhibition of formation of rcDNA, read-out: DE-19bDNA EC50
[5] = Hepatitis B virus, HepDE19, read-out: DE-19bDNA EC50 (μM), HepDE19 assay, inhibition of formation of relaxed circular DNA (rcDNA), bDNA quantitation

With `Cc1cc(NC(=O)N(C)C(C)c2c[nH]c(=O)c3cc(F)c(F)cc23)ccc1F` (single isomer, unassigned) [Compound 426, 1-(1-(6,7-Difluoro-1-oxo-1,2-dihydroisoquinolin-4-yl)ethyl)-3-(4-fluoro-3-methylphenyl)-1-methylurea] as the compound, how does the EC50 [1] read?
The EC50 was 0.11 µM.

For `CC(c1c[nH]c(=O)c2c(F)cc(F)cc12)N(C)C(=O)Nc1ccc(F)c(Cl)c1` (single isomer, unassigned) [Compound 369, 3-(3-Chloro-4-fluorophenyl)-1-(1-(6,8-difluoro-1-oxo-1,2-dihydroisoquinolin-4-yl)ethyl)-1-methylurea], which EC50 [1] is on record?
Its EC50 is 0.019 µM.

Which EC50 [2] does the source give for `CCCN(Cc1cnc(OC)c2ccccc12)C(=O)Nc1ccc(F)c(Cl)c1` [Compound 20, 3-(3-Chloro-4-fluorophenyl)-1-((1-methoxyisoquinolin-4-yl)methyl)-1-propylurea] here?
Its EC50 is 0.44 µM.

For `CN(Cc1cnc(OCc2ncn(C)n2)c2ccccc12)C(=O)Nc1ccc(F)c(Cl)c1` [Compound 87, 3-(3-Chloro-4-fluorophenyl)-1-methyl-1-((1-((1-methyl-1H-1,2,4-triazol-3-yl)methoxy)isoquinolin-4-yl)methyl)urea], which EC50 [2] is on record?
The EC50 was 0.47 µM.

For `CC(c1c[nH]c(=O)c2cc(F)c(F)cc12)N(C)C(=O)Nc1ccc(F)c(Cl)c1` (single isomer, unassigned) [Compound 279, 3-(3-Chloro-4-fluorophenyl)-1-(1-(6,7-difluoro-1-oxo-1,2-dihydroisoquinolin-4-yl)ethyl)-1-methylurea], which EC50 [3] is on record?
The EC50 was 0.007 µM.

`CC(c1c[nH]c(=O)c2ccccc12)N(CC1CCOC1)C(=O)Nc1ccc(F)c(Cl)c1` (centres unmarked) [Compound 175] was tested. Which EC50 [4] did it give?
The EC50 was 0.85 µM.

With `CC(c1c[nH]c(=O)c2c(F)c(F)ccc12)N(C)C(=O)Nc1cccnc1` (single isomer, unassigned) [Compound 450, 1-(1-(7,8-Difluoro-1-oxo-1,2-dihydroisoquinolin-4-yl)ethyl)-1-methyl-3-(pyridin-3-yl)urea] as the compound, how does the EC50 [5] read?
The EC50 was 5.4 µM.

For `CNC(=O)CCN(C(=O)Nc1ccc(F)c(Cl)c1)C(C)c1c[nH]c(=O)c2ccccc12` (single isomer, unassigned) [Compound 118, 3-(3-(3-Chloro-4-fluorophenyl)-1-(1-(1-oxo-1,2-dihydroisoquinolin-4-yl)ethyl)ureido)-N-methylpropanamide], which EC50 [4] is on record?
The EC50 was 0.14 µM.

Which EC50 [4] does the source give for `CC(c1cnc(NCCN)c2ccccc12)N(C)C(=O)Nc1ccc(F)c(Cl)c1` (single isomer, unassigned) [Compound 249, 1-(1-(1-((2-Aminoethyl)amino)isoquinolin-4-yl)ethyl)-3-(3-chloro-4-fluorophenyl)-1-methylurea] here?
The EC50 was 14 µM.

Which EC50 [1] does the source give for `CCN(C(=O)Nc1ccc(F)c(Cl)c1)C(C)c1c[nH]c(=O)c2c(F)c(F)ccc12` (single isomer, unassigned) [Compound 469, 3-(3-Chloro-4-fluorophenyl)-1-(1-(7,8-difluoro-1-oxo-1,2-dihydroisoquinolin-4-yl)ethyl)-1-ethylurea] here?
Its EC50 is 0.005 µM.

With `CC(C)CN(C(=O)Nc1ccc(F)c(Cl)c1)C(C)c1c[nH]c(=O)c2ccccc12` (racemic) [Compound 135, 3-(3-chloro-4-fluorophenyl)-1-isobutyl-1-(1-(1-oxo-1,2-dihydroisoquinolin-4-yl)ethyl)urea] as the compound, how does the EC50 [2] read?
Its EC50 is 0.01 µM.

`CCN(C(=O)Nc1ccc(F)c(Cl)c1)C(c1c[nH]c(=O)c2ccccc12)C1CC1` (single isomer, unassigned) [Compound 49, 3-(3-Chloro-4-fluorophenyl)-1-(cyclopropyl(1-oxo-1,2-dihydroisoquinolin-4-yl)methyl)-1-ethylurea] was tested. Which EC50 [3] did it give?
The EC50 was 0.5 µM.

With `CC(NC(=O)Nc1ccc(F)c(C#N)c1)c1c[nH]c(=O)c2cc(F)c(F)cc12` (centres unmarked) [Compound 495, 1-(3-Cyano-4-fluorophenyl)-3-(1-(6,7-difluoro-1-oxo-1,2-dihydroisoquinolin-4-yl)ethyl)urea] as the compound, how does the EC50 [5] read?
The EC50 was 0.33 µM.

How did the EC50 [2] turn out when `CC(c1c[nH]c(=O)c2ccccc12)N(CC1CCOC1)C(=O)Nc1ccc(F)c(Cl)c1` (centres unmarked) [Compound 165] was run?
The EC50 was 1.4 µM.

Reference: patent US20230045421A1 (priority 2018, published 2023)
